Measured values from patent US20200278355A1, “CONJUGATED PROTEINS AND USES THEREOF” (THE SCRIPPS RESEARCH INSTITUTE, priority 2017, published 2020).

Test system: CRY1, DEPDC1, and CPLX2 expression in KEAP1-mutant NSCLC cells (H460, H2122)
Assay: Gene expression changes (RNA sequencing, qPCR) in KEAP1-mutant NSCLC cells
Assay type: cell-based, human
Details: 12 h; for gene expression changes (CRY1, DEPDC1, CPLX2): KEAP1-mutant NSCLC cells
Procedure: FIG. 13A-FIG. 13E illustrate characterization of NR0B1 ligands in Keap1-mutant NSCLC cells. […] Top: Heat map depicting changes in gene expression between H460 cells expressing shNRF2, shNR0B1 or a control (shGFP) and those treated with vehicle (DMSO), BPK-29 or BPK-9 (30 μM, 12 h). Expression for each condition was first normalized to appropriate controls (shGFP or DMSO) and then normalized by row. Bottom: Overlap between gene sets regulated in BPK-29-treated vs shNR0B1 H460 cells. Gene set enrichment analysis (GSEA) was applied to all genes that were differentially expressed between shNR0B1-H460 cells and shGFP-H460 cells or between H460 cells treated with BPK-29 or DMSO. Genes were ranked based on their FDR. The FDR q-value was computed by GSEA on the C2.all collection and a cut off of FDR<0.05 was required for a gene set to be considered enriched. […] H460 (left) or H2009 (right) cells were treated with vehicle, BPK-29, or BPK-9 (25 μM, 12 h). Gene expression changes for CRY1, DEPDC1, and CPLX2 were determined by qPCR and data represents mean values+SD (n=4-10). […] Cells were treated with the vehicle, BPK-29, or BPK-9 (30 μM, 12 h). Gene expression changes for Cry1, DEPDC1, and CPLX2 were determined by qPCR and data represents mean values+SD (n=4-6). […] H460 cells were treated with vehicle or BPK-29 or BPK-9 at the indicated concentrations for 9 h. Protein expression was analyzed by immunoblotting. […] Top: H460 cells were treated with cycloheximide (100 μg/mL) for the indicated time points and NR0B1 protein content assessed by immunoblotting. […] NR0B1 protein content was determined following cycloheximide treatment and data were fit into a one-phase exponential decay model. […]
RNA was isolated by RNeasy Kit (Qiagen) and digested with DNase (Qiagen) from n=3 samples per condition (cells expressing shGFP, shNRF2_1, shNR0B1_1 or shSNW1_1 or treated with DMSO, 30 μM BPK-29 or 30 μM BPK-9). RNA integrity (RIN) numbers were determined using the Agilent TapeStation prior to library preparation. mRNA-seq libraries were prepared using the TruSeq RNA library preparation kit (version 2) according to the manufacturer's instructions (Illumina). Libraries were then quantified, pooled, and sequenced by single-end 50 base pairs using the Illumina HiSeq 2500 platform at the Salk Next-Generation Sequencing Core. […] Libraries were sequenced at an average depth of 15 million reads per sample.
The spliced read aligner STAR (Dobin et al., 2013) was used to align sequencing reads to the human hg19 genome. Gene-level read counts were obtained based on UCSC hg19 gene annotation. DESeq2 (Love et al., 2014) was used to calculate differential gene expression based on uniquely aligned reads, and p-values were adjusted for multiple hypothesis testing with the Benjamini-Hochberg method.

SMILES: O=C(c1ccc(N2CCOCC2)cc1)N1CCC(CN(C(=O)CCl)c2cncnc2)CC1 [BPK-9, 2-chloro-N-((1-(4-morpholinobenzoyl)piperidin-4-yl)methyl)-N-(pyrimidin-5-yl)acetamide]
- gene expression changes (CRY1, DEPDC1, CPLX2) (30 μM): not observed

SMILES: O=C(c1ccc(N2CCOCC2)cc1)N1CCCC(N(Cc2ccccc2)C(=O)CCl)CC1 (stereo not shown) [BPK-29, N-benzyl-2-chloro-N-(1-(4-morpholinobenzoyl)azepan-4-yl)acetamide]
- expression of representative genes (CRY1, DEPDC1, CPLX2) by qPCR (KEAP1-mutant H460 cells, 25 μM): alters the expression
- expression of representative genes (Cry1, DEPDC1, CPLX2) by qPCR (KEAP1-mutant H2122 cells, 30 μM): alters the expression
- gene expression changes (CRY1, DEPDC1, CPLX2) (30 μM): reductions in CRY1, DEPDC1, and CPLX2
